According to patent US20130096163A1, “Injectable dosage form of flupirtine” (AWD.PHARMA GMBH & CO. KG, priority 2010, published 2013):
Where two headings read alike, the source gives them in different places.

Assay: Solubility of flupirtine salts in water (stirring a suspension, filtration, HPLC-UV)
Type: physicochemical
Protocol: The solubility of the salt used is determined by stirring a suspension of a defined quantity of the corresponding salt for 30 minutes in a closed container in fully desalinated water at 25° C. The undissolved portion of the salt is filtered off, the filtrate is diluted to a suitable concentration range, and the flupirtine concentration of the solution determined using HPLC-UV (high performance liquid chromatography with UV-detection).
In a preferred embodiment of the invention, the flupirtine salt contained in the lyophilisate is selected from flupirtine mesilate, flupirtine besilate and/or flupirtine phosphate. Table 1shows the respective solubility of each of these flupirtine salts in water at 25° C. The solubility has been determined as described above.

Compound: Flupirtine mesilate
- Solubility: 16.8 mg/mL

Compound: Flupirtine phosphate
- Solubility: 13.6 mg/mL

Compound: CCOC(=O)Nc1ccc(NCc2ccc(F)cc2)nc1N.O=S(=O)(O)c1ccccc1 [Flupirtine besilate]
- Solubility (in fully desalinated water at 25° C., suspension stirred 30 minutes, filtrate by HPLC-UV): 2.8 mg/mL
